ChEMBL document CHEMBL5096241, “Discovery of 3-Aminopyrazole Derivatives as New Potent and Orally Bioavailable AXL Inhibitors” (J Med Chem, 2022)

Legend:
Ephrin type-B receptor 6 = Ephrin type-B receptor 6 (Homo sapiens, UniProt O15197); test: Binding affinity to EPHB6 (unknown origin) assessed as dissociation constant by competition binding assay
[1] = molecular target: Platelet-derived growth factor receptor beta (Homo sapiens, UniProt P09619); test: Inhibition of PDGFRB (unknown origin)
[2] = molecular target: Vascular endothelial growth factor receptor 1 (Homo sapiens, UniProt P17948); test: Binding affinity to FLT1 (unknown origin) assessed as dissociation constant by competition binding assay
[3] = Toxicity in BALB/c mouse implanted with mouse 4T1 cells assessed as body weight loss at 50 to 100 mg/kg, po qd administered for 14 consecutive days and measured every 2 days; type: organism-based; conditions: in vivo, 336 h, dose 50-100 mg/kg, time 14 day
[4] = Inhibition of TGF-beta induced cell invasion in human MDA-MB-231 cells at 0.11 uM incubated for 24 hrs by crystal violet staining based transwell assay relative to control; type: functional
[5] = molecular target: T1, Receptor-type tyrosine-protein kinase FLT3 (Homo sapiens, UniProt P36888); test: Binding affinity to FLT3 (unknown origin) assessed as dissociation constant by competition binding assay
[6] = molecular target: Proto-oncogene tyrosine-protein kinase receptor Ret (Homo sapiens, UniProt P07949); test: Binding affinity to RET (unknown origin) assessed as dissociation constant by competition binding assay
[7] = Toxicity in BALB/c mouse implanted with mouse 4T1 cells assessed as splenomegaly at 50 to 100 mg/kg, po qd administered for 14 consecutive days; type: organism-based; conditions: in vivo, 336 h, dose 50-100 mg/kg, time 14 day
MDA-MB-231 = test: Inhibition of TGF-beta induced epithelial mesenchymal transition process in human metastatic MDA-MB-231 cells assessed as restoration of E-cadherin expression incubated for 3 days by Western blot analysis; type: functional, cell-based; conditions: dose 0.11-3 µM, time 3.0 day, DDE = dose-dependent effect
[8] = molecular target: Macrophage colony-stimulating factor 1 receptor (Homo sapiens, UniProt P07333); test: Inhibition of CSF1R (unknown origin)
[9] = molecular target: T1, Receptor-type tyrosine-protein kinase FLT3; test: Inhibition of FLT3 (unknown origin)
[10] = molecular target: Hepatocyte growth factor receptor (Homo sapiens, UniProt P08581); test: Binding affinity to MET (unknown origin) assessed as dissociation constant by competition binding assay
[11] = molecular target: T2, Tyrosine-protein kinase receptor UFO (Homo sapiens, UniProt P30530); test: Inhibition of recombinant AXL (unknown origin) using poly (Glu,Tyr) 4:1 as substrate incubated for 60 mins in presence of ATP by ELISA
T2 sequence (P30530 whole entry): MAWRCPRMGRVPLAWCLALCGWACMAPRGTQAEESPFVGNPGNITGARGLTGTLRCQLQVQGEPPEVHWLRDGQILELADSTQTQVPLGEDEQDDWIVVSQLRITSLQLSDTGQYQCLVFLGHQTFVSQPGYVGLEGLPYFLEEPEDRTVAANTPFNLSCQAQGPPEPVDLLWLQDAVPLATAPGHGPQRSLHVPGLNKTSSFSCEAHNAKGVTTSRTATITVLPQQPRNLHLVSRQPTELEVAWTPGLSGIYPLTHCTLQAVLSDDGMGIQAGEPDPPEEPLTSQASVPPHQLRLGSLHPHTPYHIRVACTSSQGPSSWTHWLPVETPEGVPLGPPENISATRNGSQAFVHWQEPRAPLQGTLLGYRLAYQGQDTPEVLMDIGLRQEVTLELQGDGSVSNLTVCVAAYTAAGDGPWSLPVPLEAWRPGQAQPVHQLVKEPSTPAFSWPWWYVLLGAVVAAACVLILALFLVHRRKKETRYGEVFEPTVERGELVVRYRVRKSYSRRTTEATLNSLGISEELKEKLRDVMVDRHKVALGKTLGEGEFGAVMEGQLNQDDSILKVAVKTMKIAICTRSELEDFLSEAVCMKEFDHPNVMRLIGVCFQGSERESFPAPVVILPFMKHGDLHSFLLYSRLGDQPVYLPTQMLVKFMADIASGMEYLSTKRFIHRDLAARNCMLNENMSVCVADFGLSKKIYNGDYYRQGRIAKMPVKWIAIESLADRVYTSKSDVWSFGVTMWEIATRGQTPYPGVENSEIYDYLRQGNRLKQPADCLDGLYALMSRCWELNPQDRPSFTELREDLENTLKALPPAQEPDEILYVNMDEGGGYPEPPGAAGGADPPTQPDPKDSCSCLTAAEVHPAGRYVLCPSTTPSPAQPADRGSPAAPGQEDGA

[12] = Half life in Sprague-Dawley rat at 5 mg/kg, iv measured for 96 hrs by LC-MS analysis; type: ADME, organism-based; conditions: in vivo
[13] = Observed MRTinfinity in Sprague-Dawley rat at 5 mg/kg, iv measured for 96 hrs by LC-MS analysis; type: ADME, organism-based; conditions: in vivo
4T1 [14] = test: Antitumor activity against metastatic mouse 4T1 cells implanted in BALB/c mouse assessed as reduction in number of liver metastases at 50 mg/kg, po qd administered for 14 consecutive days by H & E staining based microscopic analysis (reference value: 24.7 +/- 6.7); type: functional; conditions: time 14 day
[15] = molecular target: T2, Tyrosine-protein kinase receptor UFO; test: Binding affinity to AXL (unknown origin) assessed as dissociation constant by competition binding assay
4T1 [16] = test: Antitumor activity against metastatic mouse 4T1 cells implanted in BALB/c mouse assessed as reduction in number of liver metastases at 100 mg/kg, po qd administered for 14 consecutive days by H & E staining based microscopic analysis (reference value: 24.7 +/- 6.7); type: functional; conditions: time 14 day

T1 sequence (P36888 whole entry): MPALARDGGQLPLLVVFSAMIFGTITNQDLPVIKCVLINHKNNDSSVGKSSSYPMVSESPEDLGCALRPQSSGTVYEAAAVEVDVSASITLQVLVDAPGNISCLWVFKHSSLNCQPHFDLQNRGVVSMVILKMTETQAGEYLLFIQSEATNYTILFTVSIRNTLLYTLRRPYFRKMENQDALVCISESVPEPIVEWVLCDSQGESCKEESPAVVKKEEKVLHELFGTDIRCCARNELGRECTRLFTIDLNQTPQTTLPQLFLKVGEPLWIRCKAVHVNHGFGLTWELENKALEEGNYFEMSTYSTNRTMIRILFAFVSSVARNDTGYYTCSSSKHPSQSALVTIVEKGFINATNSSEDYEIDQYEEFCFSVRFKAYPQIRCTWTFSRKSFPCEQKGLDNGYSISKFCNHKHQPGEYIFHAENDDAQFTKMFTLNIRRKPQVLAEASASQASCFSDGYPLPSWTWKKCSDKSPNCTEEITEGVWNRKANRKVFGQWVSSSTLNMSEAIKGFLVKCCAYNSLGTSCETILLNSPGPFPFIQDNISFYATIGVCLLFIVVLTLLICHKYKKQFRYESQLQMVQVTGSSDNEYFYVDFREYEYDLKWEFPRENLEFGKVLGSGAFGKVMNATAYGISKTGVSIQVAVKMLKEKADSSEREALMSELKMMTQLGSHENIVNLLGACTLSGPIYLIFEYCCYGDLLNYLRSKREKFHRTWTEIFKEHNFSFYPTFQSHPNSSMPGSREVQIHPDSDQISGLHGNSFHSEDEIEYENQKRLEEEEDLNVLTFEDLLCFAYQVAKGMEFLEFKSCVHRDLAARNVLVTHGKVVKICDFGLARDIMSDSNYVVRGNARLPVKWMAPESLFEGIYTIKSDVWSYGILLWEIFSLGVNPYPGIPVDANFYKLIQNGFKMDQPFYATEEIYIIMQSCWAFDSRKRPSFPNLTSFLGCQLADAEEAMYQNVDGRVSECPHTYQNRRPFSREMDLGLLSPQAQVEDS
Sequence of Proto-oncogene tyrosine-protein kinase receptor Ret (P07949 whole entry): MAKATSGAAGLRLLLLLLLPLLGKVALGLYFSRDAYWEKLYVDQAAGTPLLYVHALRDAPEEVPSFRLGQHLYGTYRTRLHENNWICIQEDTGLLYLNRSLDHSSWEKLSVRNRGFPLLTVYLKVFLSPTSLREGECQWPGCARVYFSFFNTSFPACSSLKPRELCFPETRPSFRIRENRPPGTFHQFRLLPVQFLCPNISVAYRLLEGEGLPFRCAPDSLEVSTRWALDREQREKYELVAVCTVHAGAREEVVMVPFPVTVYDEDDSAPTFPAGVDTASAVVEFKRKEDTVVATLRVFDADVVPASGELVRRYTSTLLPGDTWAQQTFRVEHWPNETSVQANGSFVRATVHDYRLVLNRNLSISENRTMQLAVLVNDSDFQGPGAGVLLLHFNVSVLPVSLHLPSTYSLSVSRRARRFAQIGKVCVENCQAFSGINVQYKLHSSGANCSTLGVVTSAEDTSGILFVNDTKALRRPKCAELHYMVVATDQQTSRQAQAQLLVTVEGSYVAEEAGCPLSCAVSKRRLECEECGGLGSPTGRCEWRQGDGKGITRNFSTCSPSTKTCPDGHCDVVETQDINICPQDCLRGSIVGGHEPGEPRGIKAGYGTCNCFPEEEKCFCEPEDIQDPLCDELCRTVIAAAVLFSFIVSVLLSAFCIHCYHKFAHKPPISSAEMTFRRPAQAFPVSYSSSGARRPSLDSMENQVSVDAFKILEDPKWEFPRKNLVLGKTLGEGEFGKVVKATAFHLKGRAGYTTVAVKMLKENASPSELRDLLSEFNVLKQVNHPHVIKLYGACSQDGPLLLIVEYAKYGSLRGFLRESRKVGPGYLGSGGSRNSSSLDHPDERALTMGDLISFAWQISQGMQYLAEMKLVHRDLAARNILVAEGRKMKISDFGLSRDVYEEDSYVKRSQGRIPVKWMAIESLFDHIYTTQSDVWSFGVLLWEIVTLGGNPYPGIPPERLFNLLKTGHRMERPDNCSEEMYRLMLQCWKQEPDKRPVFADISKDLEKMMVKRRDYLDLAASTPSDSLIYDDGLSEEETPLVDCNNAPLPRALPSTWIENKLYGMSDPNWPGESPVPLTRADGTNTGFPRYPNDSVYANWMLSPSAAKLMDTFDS
Sequence of Macrophage colony-stimulating factor 1 receptor (P07333 whole entry): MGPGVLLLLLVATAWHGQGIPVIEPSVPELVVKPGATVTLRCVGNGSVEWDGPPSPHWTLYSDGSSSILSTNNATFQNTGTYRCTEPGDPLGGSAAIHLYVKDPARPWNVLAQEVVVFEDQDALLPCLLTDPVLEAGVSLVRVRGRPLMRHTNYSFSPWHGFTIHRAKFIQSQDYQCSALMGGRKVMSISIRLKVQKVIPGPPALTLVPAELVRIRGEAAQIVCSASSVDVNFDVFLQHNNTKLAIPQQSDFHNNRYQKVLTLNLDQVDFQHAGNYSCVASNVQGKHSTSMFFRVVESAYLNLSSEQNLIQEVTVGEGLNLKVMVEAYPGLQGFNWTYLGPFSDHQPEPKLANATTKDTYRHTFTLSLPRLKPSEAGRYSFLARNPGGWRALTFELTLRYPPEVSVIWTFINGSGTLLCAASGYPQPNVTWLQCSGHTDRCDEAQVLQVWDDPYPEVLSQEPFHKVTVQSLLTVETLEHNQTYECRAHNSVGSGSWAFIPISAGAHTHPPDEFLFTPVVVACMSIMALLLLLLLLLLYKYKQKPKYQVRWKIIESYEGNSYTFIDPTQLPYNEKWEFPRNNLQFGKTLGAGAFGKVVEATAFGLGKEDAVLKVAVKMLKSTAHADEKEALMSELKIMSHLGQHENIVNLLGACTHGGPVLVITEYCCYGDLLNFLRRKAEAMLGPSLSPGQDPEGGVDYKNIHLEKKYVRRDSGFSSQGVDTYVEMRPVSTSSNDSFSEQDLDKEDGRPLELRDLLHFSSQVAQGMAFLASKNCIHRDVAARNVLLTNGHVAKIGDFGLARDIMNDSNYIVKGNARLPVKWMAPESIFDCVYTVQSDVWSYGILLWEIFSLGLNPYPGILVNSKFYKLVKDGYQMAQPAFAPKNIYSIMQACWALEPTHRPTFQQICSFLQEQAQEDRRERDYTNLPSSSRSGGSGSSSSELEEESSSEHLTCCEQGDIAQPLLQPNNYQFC
Sequence of Hepatocyte growth factor receptor (P08581 whole entry): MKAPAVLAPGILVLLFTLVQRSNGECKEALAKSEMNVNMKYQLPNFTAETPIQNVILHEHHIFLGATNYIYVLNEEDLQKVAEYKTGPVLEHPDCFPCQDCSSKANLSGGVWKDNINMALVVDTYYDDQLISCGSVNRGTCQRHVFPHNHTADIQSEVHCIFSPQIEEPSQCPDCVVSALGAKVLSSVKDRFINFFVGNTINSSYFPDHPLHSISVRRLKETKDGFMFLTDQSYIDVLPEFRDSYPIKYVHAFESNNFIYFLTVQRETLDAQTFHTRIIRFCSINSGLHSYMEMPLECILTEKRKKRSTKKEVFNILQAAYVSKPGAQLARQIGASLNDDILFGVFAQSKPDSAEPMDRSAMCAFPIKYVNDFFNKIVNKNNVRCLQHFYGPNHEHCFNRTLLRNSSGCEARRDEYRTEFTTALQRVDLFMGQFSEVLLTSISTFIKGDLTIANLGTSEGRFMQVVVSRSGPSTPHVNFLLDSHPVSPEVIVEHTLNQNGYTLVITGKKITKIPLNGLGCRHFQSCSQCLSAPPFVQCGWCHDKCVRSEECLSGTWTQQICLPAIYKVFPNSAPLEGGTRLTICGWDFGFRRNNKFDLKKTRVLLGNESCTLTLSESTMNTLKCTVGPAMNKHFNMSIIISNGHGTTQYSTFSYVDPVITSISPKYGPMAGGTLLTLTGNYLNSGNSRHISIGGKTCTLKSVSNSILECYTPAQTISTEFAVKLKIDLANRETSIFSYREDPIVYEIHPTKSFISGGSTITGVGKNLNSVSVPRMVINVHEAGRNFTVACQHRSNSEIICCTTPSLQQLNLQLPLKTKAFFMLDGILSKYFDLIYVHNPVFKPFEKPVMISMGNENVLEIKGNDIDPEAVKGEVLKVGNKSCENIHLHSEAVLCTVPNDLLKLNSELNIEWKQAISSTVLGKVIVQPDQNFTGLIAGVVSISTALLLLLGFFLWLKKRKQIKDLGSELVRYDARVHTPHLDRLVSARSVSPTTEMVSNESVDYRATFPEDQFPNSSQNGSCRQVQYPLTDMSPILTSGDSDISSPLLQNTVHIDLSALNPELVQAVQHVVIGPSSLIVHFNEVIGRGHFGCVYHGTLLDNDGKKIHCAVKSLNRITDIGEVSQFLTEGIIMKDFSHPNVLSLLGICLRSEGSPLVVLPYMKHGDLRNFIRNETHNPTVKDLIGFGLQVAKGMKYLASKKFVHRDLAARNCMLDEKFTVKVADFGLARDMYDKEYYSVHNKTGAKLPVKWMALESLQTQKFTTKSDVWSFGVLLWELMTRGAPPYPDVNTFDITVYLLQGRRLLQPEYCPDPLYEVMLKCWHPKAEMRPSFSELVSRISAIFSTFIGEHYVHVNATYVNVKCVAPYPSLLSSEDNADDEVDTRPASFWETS

- Kd (Ephrin type-B receptor 6): > 1000 nM
- IC50 [1]: > 10000 nM
- Kd [2]: 14 nM
- Kd [5]: 2.5 nM
- Kd [6]: 600 nM
- IC50 [8]: 26.7 nM
- IC50 [9]: 156 nM
- Kd [10]: > 1000 nM
- IC50 [11]: 1.6 nM
- half-life [12]: 3.31 h
- MRT inf [13]: 1.82 h
- Kd [15]: 0.26 nM
SMILES: COc1cc2c(Oc3ccc(Nc4nn(C)cc4C(=O)NC4CCCCC4)cc3F)ccnc2cc1OCCCN1CCOCC1
- Activity [3]: Non-Toxic
- inhibition at 0.11 µM [4]: 22.6%
- Activity [7]: Non-Toxic
- inhibition (MDA-MB-231): Dde
- Activity (4T1 [14]): 3.2
- Activity (4T1 [16]): 2.8
